Measurements reported in PMC9481151, “Discovery of new symmetrical and asymmetrical nitrile-containing 1,4-dihydropyridine derivatives as dual kinases and P-glycoprotein inhibitors: synthesis, in vitro assays, and in silico studies” (Journal of Enzyme Inhibition and Medicinal Chemistry, 2022).
Values joined by “and” are separate entries in the source; they are usually repeats but may differ in a detail not shown here. Equal entries are not always repeated.

Experiments:
SK-MEL-2 = experiment: NCI single dose (10 µM) SRB screen; format: cell-based, human; conditions: melanoma, 48 h
SR = experiment: NCI single dose (10 µM) SRB screen; format: cell-based, human; conditions: leukaemia, 48 h
TK-10 = experiment: NCI single dose (10 µM) SRB screen; format: cell-based, human; conditions: renal cancer, 48 h
MDA-MB-435 = experiment: NCI single dose (10 µM) SRB screen; format: cell-based, human; conditions: melanoma, 48 h
MDA-MB-468 = experiment: NCI single dose (10 µM) SRB screen; format: cell-based, human; conditions: breast cancer, 48 h
SNB-19 = experiment: NCI single dose (10 µM) SRB screen; format: cell-based, human; conditions: CNS cancer, 48 h
HCC-2998 = experiment: NCI single dose (10 µM) SRB screen; format: cell-based, human; conditions: colon cancer, 48 h
NCI-H460 = experiment: NCI single dose (10 µM) SRB screen; format: cell-based, human; conditions: non-small cell lung cancer, 48 h
A498 = experiment: NCI single dose (10 µM) SRB screen; format: cell-based, human; conditions: renal cancer, 48 h
MALME-3M = experiment: NCI single dose (10 µM) SRB screen; format: cell-based, human; conditions: melanoma, 48 h
SN12C = experiment: NCI single dose (10 µM) SRB screen; format: cell-based, human; conditions: renal cancer, 48 h
HL-60(TB) = experiment: NCI single dose (10 µM) SRB screen; format: cell-based, human; conditions: leukaemia, 48 h
Pseudomonas aeruginosa = experiment: Agar well diffusion method
SNB-75 = experiment: NCI single dose (10 µM) SRB screen; format: cell-based, human; conditions: CNS cancer, 48 h
HT29 = experiment: NCI single dose (10 µM) SRB screen; format: cell-based, human; conditions: colon cancer, 48 h
NCI-H23 = experiment: NCI single dose (10 µM) SRB screen; format: cell-based, human; conditions: non-small cell lung cancer, 48 h
M14 = experiment: NCI single dose (10 µM) SRB screen; format: cell-based, human; conditions: melanoma, 48 h
EKVX = experiment: NCI single dose (10 µM) SRB screen; format: cell-based, human; conditions: non-small cell lung cancer, 48 h
SF-268 = experiment: NCI single dose (10 µM) SRB screen; format: cell-based, human; conditions: CNS cancer, 48 h
HCT-15 = experiment: NCI single dose (10 µM) SRB screen; format: cell-based, human; conditions: colon cancer, 48 h
SF-295 = experiment: NCI single dose (10 µM) SRB screen; format: cell-based, human; conditions: CNS cancer, 48 h
NCI/ADR-RES = experiment: NCI single dose (10 µM) SRB screen; format: cell-based, human; conditions: ovarian cancer, 48 h
MDA-MB-231 = experiment: NCI single dose (10 µM) SRB screen; format: cell-based, human; conditions: breast cancer, 48 h
ACHN = experiment: NCI single dose (10 µM) SRB screen; format: cell-based, human; conditions: renal cancer, 48 h
MOLT-4 = experiment: NCI single dose (10 µM) SRB screen; format: cell-based, human; conditions: leukaemia, 48 h
HOP-92 = experiment: NCI single dose (10 µM) SRB screen; format: cell-based, human; conditions: non-small cell lung cancer, 48 h
T-47D = experiment: NCI single dose (10 µM) SRB screen; format: cell-based, human; conditions: breast cancer, 48 h
Staphylococcus aureus = experiment: Agar well diffusion method
NCI-H322M = experiment: NCI single dose (10 µM) SRB screen; format: cell-based; conditions: non-small cell lung cancer, 48 h
RPMI-8226 = experiment: NCI single dose (10 µM) SRB screen; format: cell-based, human; conditions: leukaemia, 48 h
UACC-257 = experiment: NCI single dose (10 µM) SRB screen; format: cell-based, human; conditions: melanoma, 48 h
Escherichia coli = experiment: Agar well diffusion method
IGROV1 = experiment: NCI single dose (10 µM) SRB screen; format: cell-based, human; conditions: ovarian cancer, 48 h
NCI-H522 = experiment: NCI single dose (10 µM) SRB screen; format: cell-based, human; conditions: non-small cell lung cancer, 48 h
HOP-62 = experiment: NCI single dose (10 µM) SRB screen; format: cell-based, human; conditions: non-small cell lung cancer, 48 h
786-0 = experiment: NCI single dose (10 µM) SRB screen; format: cell-based, human; conditions: renal cancer, 48 h
UO-31 = experiment: NCI single dose (10 µM) SRB screen; format: cell-based, human; conditions: renal cancer, 48 h
SK-MEL-28 = experiment: NCI single dose (10 µM) SRB screen; format: cell-based, human; conditions: melanoma, 48 h
SK-OV-3 = experiment: NCI single dose (10 µM) SRB screen; format: cell-based, human; conditions: ovarian cancer, 48 h
OVCAR-5 = experiment: NCI single dose (10 µM) SRB screen; format: cell-based, human; conditions: ovarian cancer, 48 h
UACC-62 = experiment: NCI single dose (10 µM) SRB screen; format: cell-based, human; conditions: melanoma, 48 h
K-562 = experiment: NCI single dose (10 µM) SRB screen; format: cell-based, human; conditions: leukaemia, 48 h
Bacillus subtilis = experiment: Agar well diffusion method
SF-539 = experiment: NCI single dose (10 µM) SRB screen; format: cell-based, human; conditions: CNS cancer, 48 h
KM12 = experiment: NCI single dose (10 µM) SRB screen; format: cell-based, human; conditions: colon cancer, 48 h
CCRF-CEM = experiment: NCI single dose (10 µM) SRB screen; format: cell-based, human; conditions: leukaemia, 48 h
COLO 205 = experiment: NCI single dose (10 µM) SRB screen; format: cell-based, human; conditions: colon cancer, 48 h
DU-145 = experiment: NCI single dose (10 µM) SRB screen; format: cell-based, human; conditions: prostate cancer, 48 h
HCT-116 = experiment: NCI single dose (10 µM) SRB screen; format: cell-based, human; conditions: colon cancer, 48 h
U251 = experiment: NCI single dose (10 µM) SRB screen; format: cell-based, human; conditions: CNS cancer, 48 h
CAKI-1 = experiment: NCI single dose (10 µM) SRB screen; format: cell-based, human; conditions: renal cancer, 48 h
PC-3 = experiment: NCI single dose (10 µM) SRB screen; format: cell-based, human; conditions: prostate cancer, 48 h
A549/ATCC = experiment: NCI single dose (10 µM) SRB screen; format: cell-based, human; conditions: non-small cell lung cancer, 48 h

SMILES: CCOC(=O)C1=C(C)NC(C)=C(C(=O)OC(C)(C)C)C1c1cccc(C#N)c1 (racemic) [Compound 2j, (±)-3-Tert-butyl 5-ethyl 4-(3-cyanophenyl)-2,6-dimethyl-1,4-dihydropyridine-3,5-dicarboxylate]
- GI% SK-MEL-2 (SK-MEL-2): – (Only GI% ≥ 10 are shown)
- GI% SR (SR): 22%
- GI% TK-10 (TK-10): – (Only GI% ≥ 10 are shown)
- GI% MDA-MB-435 (MDA-MB-435): – (Only GI% ≥ 10 are shown)
- GI% MDA-MB-468 (MDA-MB-468): 10%
- GI% SNB-19 (SNB-19): – (Only GI% ≥ 10 are shown)
- GI% HCC-2998 (HCC-2998): – (Only GI% ≥ 10 are shown)
- GI% NCI-H460 (NCI-H460): – (Only GI% ≥ 10 are shown)
- GI% A498 (A498): – (Only GI% ≥ 10 are shown)
- GI% MALME-3M (MALME-3M): – (Only GI% ≥ 10 are shown)
- GI% SN12C (SN12C): – (Only GI% ≥ 10 are shown)
- GI% HL-60(TB) (HL-60(TB)): 19%
- zone of inhibition at 1000 µg/mL (Pseudomonas aeruginosa; Pseudomonas aeruginosa, 24 h, read-out: Diameter of inhibition zone, P. aeruginosa): 20 mm
- % activity index, P. aeruginosa (Pseudomonas aeruginosa; relative to ciprofloxacin): 86% and 86.9%
- GI% SNB-75 (SNB-75): 22%
- GI% HT29 (HT29): – (Only GI% ≥ 10 are shown)
- GI% NCI-H23 (NCI-H23): – (Only GI% ≥ 10 are shown)
- GI% M14 (M14): – (Only GI% ≥ 10 are shown)
- GI% EKVX (EKVX): 10%
- GI% SF-268 (SF-268): – (Only GI% ≥ 10 are shown)
- GI% HCT-15 (HCT-15): – (Only GI% ≥ 10 are shown)
- GI% SF-295 (SF-295): – (Only GI% ≥ 10 are shown)
- GI% NCI/ADR-RES (NCI/ADR-RES): 10%
- GI% MDA-MB-231 (MDA-MB-231): – (Only GI% ≥ 10 are shown)
- GI% ACHN (ACHN): – (Only GI% ≥ 10 are shown)
- GI% MOLT-4 (MOLT-4): 17%
- GI% HOP-92 (HOP-92): – (Only GI% ≥ 10 are shown)
- GI% T-47D (T-47D): – (Only GI% ≥ 10 are shown)
- zone of inhibition at 1000 µg/mL (Staphylococcus aureus; Staphylococcus aureus, 24 h, read-out: Diameter of inhibition zone, S. aureus): 18 mm
- % activity index, S. aureus (Staphylococcus aureus; relative to ciprofloxacin): 75%
- GI% NCI-H322M (NCI-H322M): – (Only GI% ≥ 10 are shown)
- GI% RPMI-8226 (RPMI-8226): 12%
- GI% UACC-257 (UACC-257): – (Only GI% ≥ 10 are shown)
- zone of inhibition at 1000 µg/mL (Escherichia coli; Escherichia coli, 24 h, read-out: Diameter of inhibition zone, E. coli): 18 mm
- % activity index, E. coli (Escherichia coli; relative to ciprofloxacin): 69% and 69.2%
- GI% IGROV1 (IGROV1): – (Only GI% ≥ 10 are shown)
- GI% NCI-H522 (NCI-H522): 13%
- GI% HOP-62 (HOP-62): – (Only GI% ≥ 10 are shown)
- GI% 786-0 (786-0): 13%
- GI% UO-31 (UO-31): – (Only GI% ≥ 10 are shown)
- GI% SK-MEL-28 (SK-MEL-28): – (Only GI% ≥ 10 are shown)
- GI% SK-OV-3 (SK-OV-3): – (Only GI% ≥ 10 are shown)
- GI% OVCAR-5 (OVCAR-5): – (Only GI% ≥ 10 are shown)
- GI% UACC-62 (UACC-62): 10%
- GI% K-562 (K-562): 17%
- zone of inhibition at 1000 µg/mL (Bacillus subtilis; Bacillus subtilis, 24 h, read-out: Diameter of inhibition zone, B. subtilis): 15 mm
- % activity index, B. subtilis (Bacillus subtilis; relative to ciprofloxacin): 65.2%
- GI% SF-539 (SF-539): – (Only GI% ≥ 10 are shown)
- GI% KM12 (KM12): – (Only GI% ≥ 10 are shown)
- GI% CCRF-CEM (CCRF-CEM): – (Only GI% ≥ 10 are shown)
- GI% COLO 205 (COLO 205): – (Only GI% ≥ 10 are shown)
- GI% DU-145 (DU-145): – (Only GI% ≥ 10 are shown)
- GI% HCT-116 (HCT-116): 13%
- GI% U251 (U251): – (Only GI% ≥ 10 are shown)
- GI% CAKI-1 (CAKI-1): 17%
- GI% PC-3 (PC-3): 18%
- GI% A549/ATCC (A549/ATCC): 11%
